Source: the NIST ThermoML archive (doi:10.1021/acs.jced.8b00132)
Where “and” joins values, the source holds several entries; their conditions need not be identical. Identical values can stand only once.

O=C(C(F)(F)C(F)(F)F)C(F)(C(F)(F)F)C(F)(F)F [dodecafluoro-2-methylpentan-3-one]
Settings | thermal conductivity
272.59 K, 5172 kPa, Liquid, transient hot wire | 0.06413 W/m/K
272.59 K, 11144 kPa, Liquid, transient hot wire | 0.06607 W/m/K
272.63 K, 49567 kPa, Liquid, transient hot wire | 0.07698 W/m/K
272.63 K, 49576 kPa, Liquid, transient hot wire | 0.07734 W/m/K
272.66 K, 412 kPa, Liquid, transient hot wire | 0.06211 W/m/K
272.66 K, 419 kPa, Liquid, transient hot wire | 0.06231 W/m/K
272.66 K, 59545 kPa, Liquid, transient hot wire | 0.08002 W/m/K
272.67 K, 59542 kPa, Liquid, transient hot wire | 0.0797 W/m/K
272.71 K, 68218 kPa, Liquid, transient hot wire | 0.08167 W/m/K
272.71 K, 68236 kPa, Liquid, transient hot wire | 0.08151 W/m/K
273.05 K, 32241 kPa, Liquid, transient hot wire | 0.07208 W/m/K
273.05 K, 32245 kPa, Liquid, transient hot wire | 0.0724 W/m/K
273.05 K, 40384 kPa, Liquid, transient hot wire | 0.07454 W/m/K
273.05 K, 40385 kPa, Liquid, transient hot wire | 0.07459 W/m/K
273.05 K, 46114 kPa, Liquid, transient hot wire | 0.07568 W/m/K
273.06 K, 24365 kPa, Liquid, transient hot wire | 0.07006 W/m/K
273.06 K, 24371 kPa, Liquid, transient hot wire | 0.0701 W/m/K
273.07 K, 5155 kPa, Liquid, transient hot wire | 0.06386 W/m/K
273.07 K, 46114 kPa, Liquid, transient hot wire | 0.07563 W/m/K
273.08 K, 5150 kPa, Liquid, transient hot wire | 0.06384 W/m/K
273.1 K, 49569 kPa, Liquid, transient hot wire | 0.07538 W/m/K
273.1 K, 49574 kPa, Liquid, transient hot wire | 0.07648 W/m/K
273.11 K, 59541 kPa, Liquid, transient hot wire | 0.07959 W/m/K
273.12 K, 59533 kPa, Liquid, transient hot wire | 0.07966 W/m/K
273.14 K, 68200 kPa, Liquid, transient hot wire | 0.0807 W/m/K
273.15 K, 404 kPa, Liquid, transient hot wire | 0.06203 W/m/K
273.15 K, 68218 kPa, Liquid, transient hot wire | 0.08063 W/m/K
273.16 K, 411 kPa, Liquid, transient hot wire | 0.06212 W/m/K
273.17 K, 17550 kPa, Liquid, transient hot wire | 0.06792 W/m/K
273.17 K, 17567 kPa, Liquid, transient hot wire | 0.06791 W/m/K
273.18 K, 11149 kPa, Liquid, transient hot wire | 0.066 W/m/K
273.18 K, 11163 kPa, Liquid, transient hot wire | 0.06608 W/m/K
273.61 K, 5151 kPa, Liquid, transient hot wire | 0.06408 W/m/K
273.61 K, 5162 kPa, Liquid, transient hot wire | 0.06401 W/m/K
273.61 K, 59517 kPa, Liquid, transient hot wire | 0.0783 W/m/K
273.62 K, 49564 kPa, Liquid, transient hot wire | 0.07642 W/m/K
273.62 K, 49566 kPa, Liquid, transient hot wire | 0.07674 W/m/K
273.62 K, 59531 kPa, Liquid, transient hot wire | 0.07779 W/m/K
273.65 K, 40387 kPa, Liquid, transient hot wire | 0.07442 W/m/K
273.65 K, 40395 kPa, Liquid, transient hot wire | 0.07429 W/m/K
273.65 K, 46116 kPa, Liquid, transient hot wire | 0.0758 W/m/K
273.65 K, 68183 kPa, Liquid, transient hot wire | 0.08044 W/m/K
273.65 K, 68193 kPa, Liquid, transient hot wire | 0.08038 W/m/K
273.66 K, 46113 kPa, Liquid, transient hot wire | 0.07572 W/m/K
273.67 K, 32245 kPa, Liquid, transient hot wire | 0.07209 W/m/K
273.67 K, 32247 kPa, Liquid, transient hot wire | 0.07216 W/m/K
273.7 K, 424 kPa, Liquid, transient hot wire | 0.0621 W/m/K
273.7 K, 24366 kPa, Liquid, transient hot wire | 0.07016 W/m/K
273.7 K, 24370 kPa, Liquid, transient hot wire | 0.07021 W/m/K
273.71 K, 432 kPa, Liquid, transient hot wire | 0.06209 W/m/K
273.81 K, 17553 kPa, Liquid, transient hot wire | 0.06799 W/m/K
273.82 K, 17545 kPa, Liquid, transient hot wire | 0.06795 W/m/K
273.85 K, 11147 kPa, Liquid, transient hot wire | 0.06585 W/m/K
273.86 K, 11155 kPa, Liquid, transient hot wire | 0.06592 W/m/K
274.19 K, 59501 kPa, Liquid, transient hot wire | 0.07896 W/m/K
274.2 K, 59504 kPa, Liquid, transient hot wire | 0.07856 W/m/K
274.21 K, 49565 kPa, Liquid, transient hot wire | 0.07644 W/m/K
274.21 K, 49570 kPa, Liquid, transient hot wire | 0.07662 W/m/K
274.22 K, 68163 kPa, Liquid, transient hot wire | 0.08055 W/m/K
274.22 K, 68173 kPa, Liquid, transient hot wire | 0.08038 W/m/K
274.29 K, 46110 kPa, Liquid, transient hot wire | 0.07571 W/m/K
274.3 K, 46107 kPa, Liquid, transient hot wire | 0.07575 W/m/K
274.31 K, 40378 kPa, Liquid, transient hot wire | 0.07418 W/m/K
274.31 K, 40391 kPa, Liquid, transient hot wire | 0.07426 W/m/K
274.35 K, 32242 kPa, Liquid, transient hot wire | 0.0723 W/m/K
274.35 K, 32249 kPa, Liquid, transient hot wire | 0.0721 W/m/K
274.39 K, 24361 kPa, Liquid, transient hot wire | 0.07 W/m/K
274.4 K, 24354 kPa, Liquid, transient hot wire | 0.06999 W/m/K
274.53 K, 17544 kPa, Liquid, transient hot wire | 0.068 W/m/K
274.54 K, 17533 kPa, Liquid, transient hot wire | 0.06799 W/m/K
274.59 K, 11155 kPa, Liquid, transient hot wire | 0.06582 W/m/K
274.6 K, 11134 kPa, Liquid, transient hot wire | 0.06585 W/m/K
274.82 K, 59491 kPa, Liquid, transient hot wire | 0.07869 W/m/K
274.82 K, 59496 kPa, Liquid, transient hot wire | 0.07855 W/m/K
274.83 K, 68150 kPa, Liquid, transient hot wire | 0.0803 W/m/K
274.83 K, 68153 kPa, Liquid, transient hot wire | 0.08033 W/m/K
274.86 K, 49566 kPa, Liquid, transient hot wire | 0.0765 W/m/K
274.86 K, 49571 kPa, Liquid, transient hot wire | 0.07653 W/m/K
300.59 K, 40 kPa, Gas, hot wire | 0.01173 W/m/K
300.6 K, 35 kPa, Gas, hot wire | 0.01177 W/m/K
300.6 K, 40 kPa, Gas, hot wire | 0.01173 W/m/K
300.61 K, 35 kPa, Gas, hot wire | 0.01163 W/m/K
300.62 K, 27 kPa, Gas, hot wire | 0.01161 W/m/K and 0.01166 W/m/K
300.8 K, 40 kPa, Gas, hot wire | 0.01173 W/m/K and 0.01174 W/m/K
